Test results as given in patent publication US20220112445A1 (priority 2019, published 2022).
Like-named read-outs stand apart in the source and are kept apart here.

Legend:
[1] = tested on: Bacillus subtilis subsp. globigii; conditions: cited from earlier work
Bacillus subtilis spores = conditions: 20 mg/I hydrogen peroxide for 60 minutes; cited from earlier work
Bacillus spores [2] = conditions: cited from earlier work
Bacillus spores [3] = tested on: Bacillus spores
Protocol: Other embodiments of the treatment formula were also tested using varying amounts of hydrogen peroxide.

**Q.** For `OO` [H2O2, hydrogen peroxide], which “effectiveness against Bacillus subtilis subsp. globigii” value ([1]; 10% hydrogen peroxide at room temperature) is on record?
**A.** ineffective

**Q.** And the “concentration required for the destruction of these spores” value ([1]; high temperature (80° C.))?
**A.** 35%

**Q.** And the “kill of Bacillus subtilis spores” value (Bacillus subtilis spores)?
**A.** no kill

**Q.** What about the concentration exponent (Bacillus spores [2]; 25° C., levels of between 10 and 20% (w/v)) of the same compound?
**A.** about 1.5

**Q.** And the “bactericidal / sporicidal activity” value (Bacillus spores [2]; concentration of 6% (w/vol))?
**A.** bactericidal, but only slowly sporicidal

**Q.** What about the “Spore Survival 5 Minutes” value (Bacillus spores [3]; 0.285 Percent H2O2, 5 minutes after mixing) of the same compound?
**A.** Excellent

**Q.** What about the “Spore Survival 2 Hours” value (Bacillus spores [3]; 0.285 Percent H2O2, 2 hours after mixing) of the same compound?
**A.** Excellent

**Q.** And the “Spore Survival 4 Hours” value (Bacillus spores [3]; 0.285 Percent H2O2, 4 hours after mixing)?
**A.** Excellent

**Q.** And the “Spore Survival 6 Hours” value (Bacillus spores [3]; 0.285 Percent H2O2, 6 hours after mixing)?
**A.** Excellent

**Q.** What about the “Spore Survival 24 Hours” value (Bacillus spores [3]; 0.285 Percent H2O2, 24 hours after mixing) of the same compound?
**A.** Excellent

**Q.** What about the “Spore Survival 5 Minutes” value (Bacillus spores [3]; 0.71 Percent H2O2, 5 minutes after mixing) of the same compound?
**A.** Excellent

**Q.** What about the “Spore Survival 2 Hours” value (Bacillus spores [3]; 0.71 Percent H2O2, 2 hours after mixing) of the same compound?
**A.** Good

**Q.** And the “Spore Survival 4 Hours” value (Bacillus spores [3]; 0.71 Percent H2O2, 4 hours after mixing)?
**A.** Fair

**Q.** And the “Spore Survival 6 Hours” value (Bacillus spores [3]; 0.71 Percent H2O2, 6 hours after mixing)?
**A.** Fair

**Q.** What about the “Spore Survival 24 Hours” value (Bacillus spores [3]; 0.71 Percent H2O2, 24 hours after mixing) of the same compound?
**A.** Poor

**Q.** What about the spore viability (Bacillus spores [3]; 1.43% hydrogen peroxide level) of the same compound?
**A.** not viable

**Q.** And the “Spore Survival 5 Minutes” value (Bacillus spores [3]; 1.43 Percent H2O2, 5 minutes after mixing)?
**A.** 0

**Q.** What about the “Spore Survival 2 Hours” value (Bacillus spores [3]; 1.43 Percent H2O2, 2 hours after mixing) of the same compound?
**A.** 0

**Q.** What about the “Spore Survival 4 Hours” value (Bacillus spores [3]; 1.43 Percent H2O2, 4 hours after mixing) of the same compound?
**A.** 0

**Q.** What about the “Spore Survival 6 Hours” value (Bacillus spores [3]; 1.43 Percent H2O2, 6 hours after mixing) of the same compound?
**A.** 0

**Q.** And the “Spore Survival 24 Hours” value (Bacillus spores [3]; 1.43 Percent H2O2, 24 hours after mixing)?
**A.** 0
